The values below come from paper PMC9386376, “Discovery of spirooxindole-derived small-molecule compounds as novel HDAC/MDM2 dual inhibitors and investigation of their anticancer activity” (Frontiers in Oncology, 2022).

The test system of one test is MCF-7 cells. Put plainly: MTT antiproliferative assay, MCF-7. The settings on record: Homo sapiens, MCF7, read-out: IC50 MCF-7. In general terms: Tetrazolium assays rely on reduction of a dye to a coloured formazan, in cell work by metabolically active cells.
The next test deals with T1, HDAC8 (Homo sapiens, UniProt Q9BY41).
T1 sequence (Q9BY41 1-377): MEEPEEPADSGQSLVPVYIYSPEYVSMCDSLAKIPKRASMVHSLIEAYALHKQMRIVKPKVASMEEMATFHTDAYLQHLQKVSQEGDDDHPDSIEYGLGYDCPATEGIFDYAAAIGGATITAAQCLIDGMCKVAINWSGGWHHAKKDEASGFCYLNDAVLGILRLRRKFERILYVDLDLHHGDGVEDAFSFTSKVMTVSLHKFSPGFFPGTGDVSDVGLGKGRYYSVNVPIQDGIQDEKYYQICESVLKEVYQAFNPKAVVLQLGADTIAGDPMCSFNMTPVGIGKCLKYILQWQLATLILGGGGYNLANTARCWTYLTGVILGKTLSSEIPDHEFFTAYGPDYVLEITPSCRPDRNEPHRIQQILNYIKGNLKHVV
Put plainly: HDAC isoform selectivity, HDAC8. The format is biochemical. Particulars: HDAC subtype panel.

Description for MCF-7 cells: The cytotoxicity assay was performed with MTT method as previously described ([73], [88], [89]).

What is called IC50 is the concentration needed to halve the response being measured. Consider `O=C(CCCCCCC(=O)N1CCC(C(=O)Nc2ccc([C@@H]3[C@H]4CSCN4[C@]4(C(=O)Nc5cc(Cl)ccc54)[C@H]3C(=O)c3ccccc3)cc2)CC1)NO` [compound 11b, N-(4-((3R,6'S,7'R,7a'S)-6'-benzoyl-6-chloro-2-oxo-1',6',7',7a'-tetrahydro-3'H-spiro[indoline-3,5'-pyrrolo[1,2-c]thiazol]-7'-yl)phenyl)-1-(8-(hydroxyamino)-8-oxooctanoyl)piperidine-4-carboxamide], for which the figures for the IC50 in the test with MCF-7 cells and against HDAC8 were 1370 ± 450 nM and 313 ± 23 nM, respectively.
